“Also recorded” adds a separate entry of the source.

The test system of one test is wild type (WT) mice. The experiment in a line: Topical MC903 treatment versus vehicle (AD-like inflammation and itch). It counts as in vivo, mouse. The note with it: daily topical to ears, compared to vehicle (EtOH). As to the method: (§1) For induction of AD-like inflammation and itch, mice were topically treated once daily with 2 nmol of MC903 (calcipotriol, Tocris Bioscience) for 7 days or 1 nmol of MC903 for 12 days on both ears in 20 μL of ethanol (vehicle) as previously described (Kim et al., 2013a, 2014, Siracusa et al., 2011, 2013b). Ear thickness measurements were performed daily with dial calipers as previously described (Kim et al., 2013a, 2014). At the end of the MC903 treatment, murine ear skin tissues were fixed in 4% paraformaldehyde (PFA) and embedded in paraffin before sectioning and staining with Hematoxylin & Eosin (H&E). Histology score was determined by the following formula using ImageJ analysis software (NIH) as previously described: (total number of lymphocytes per high power field (HPF)+thickness of the epidermis measured in microns from the basement membrane to the top of the stratum corneum) divided by 100 (Kim et al., 2014). All images were captured with a NanoZoomer 2.0-HT System (Hamamatsu). Murine disease and behavioral assessment data (below) were derived from two to three independent experiments. For behavioral assessments, mice were first acclimated to the recording room and behavior chambers at least one day prior to testing. On the day of testing, mice were again acclimated to the recording room and behavior chambers and then video recorded. The video recordings were then manually scored for number of scratching bouts per 30 minute block. One scratching bout was defined as one instance of lifting the hind paw from the floor, scratching, and returning the paw to the floor or placing the paw in the animal's mouth. All behavioral tests were performed on sex- and age-matched adult mice (8-12 weeks old).

The subject of another test is mouse DRG neurons. Briefly: Ratiometric calcium imaging of cultured murine DRG neurons. It counts as cell-based. Conditions: for responsive neurons as a percentage of total mouse DRG neurons: cytokines 300 nM, histamine 50 μM, responsive = change in fluorescence ratio >10% of baseline; for calcium response of DRG neurons to stimulation: ex vivo stimulation, recombinant murine cytokine 300 nM; for cytokine-responsive neurons that also responded to IL-31 or histamine: serial stimulation with the cytokine, then IL-31 and histamine. As to the method:
Murine DRG neurons were isolated and cultured using a previously published protocol with slight modification (Malin et al., 2007). Briefly, laminectomies were performed on mice and bilateral DRG were removed. After removal of connective tissues, DRG were transferred to 1 mL Ca^2+/Mg^2+-free Hank's Balanced Salt Solution (HBSS) containing 1 μL saturated NaHCO3, 0.35 mg L-cysteine, and 20 U papain (Worthington) and incubated at 37° C. for 20 min. The suspension was centrifuged, and the supernatant was removed and replaced with 1 mL Ca^2+/Mg^2+-free HBSS containing 3.75 mg collagenase type II (Worthington) and 7.5 mg dispase (Worthington) and incubated at 37° C. for 20 min. After digestion, neurons were gently triturated, pelleted, and then resuspended in Neurobasal-A medium containing 2% B-27 supplement (Gibco), 100 U/mL penicillin plus 100 μg/mL streptomycin (Sigma), 100 ng/mL nerve growth factor (Sigma), and 10% heat-inactivated FBS (Sigma). Neurons were then plated on a 12 mm glass coverslip pre-coated with poly-L-lysine (Sigma) and laminin (Sigma) and cultured under a humidified atmosphere of 5% CO2 at 37° C. for 18-24 hours before use.
Cultured DRG neurons were loaded with 4 μM Fura-2 AM (Life Technologies) in overnight DRG culture medium at 37° C. for 45 minutes. Cells were then washed three times and incubated in calcium imaging buffer (130 mM NaCl, 3 mM KCl, 2.5 mM CaCl2, 0.6 mM MgCl2, 10 mM HEPES, 10 mM glucose, 1.2 mM NaHCO3, pH 7.45) at room temperature for 30 minutes before use. All recombinant murine cytokines (IL-4, IL-5, and IL-13: Peprotech, IL-31: Bristol-Myers Squibb) were used at 300 nM, while histamine (Sigma) and capsaicin (Sigma) were used at 50 μM and 300 nM, respectively. Only sensory neurons that responded to a final challenge of 100 mM KCl were used in analyses. Fluorescence was recorded at 340 nm and 380 nm excitation wavelengths (F340, F380) using an inverted Nikon Ti-E microscope with NIS-Elements imaging software (Nikon Instruments). Fluorescence ratios (F340/F380) were normalized to baseline and used to reflect changes in intracellular Ca^2+ and neuronal activation upon stimulation. […] Data were derived from two to three independent experiments.

In another test the test system is CIP patient (Case 2). The experiment in a line: Clinical history of CIP patient Case 2 (prior treatment). It counts as in vivo, human. Conditions: course of oral prednisone prescribed for polymyalgia rheumatica. Here is the method:
This example describes four elderly CIP patients with evidence of marked immune dysregulation after exclusion of other cutaneous and systemic causes of pruritus.
TABLE 2 Legend: (a) Average and peak Numerical Rating Scale (NRS) itch scores at the time of presentation to our clinic are noted, respectively. (b) A thorough workup was performed to establish the diagnosis of CIP by exclusion of other cutaneous and systemic causes of pruritus, including psychiatric and neurologic conditions, renal failure, biliary dysfunction, thyroid abnormalities, HIV/AIDS, hepatitis B, and hepatitis C. […] (d) Outside of two episodes of septic arthritis arising from knee replacement surgery, the patient had no history of persistent or recurrent infections, autoimmunity, or malignancy.

In a further test the test system is MC903-treated WT mice. The experiment in a line: Pharmacologic JAK inhibition in MC903-induced AD-associated itch model. It counts as in vivo, mouse. As to the method: as §1, with “old). Stock ruxolitinib (Selleck Chemicals) solutions were prepared in DMSO (Sigma) per the manufacturer's instructions. For systemic treatments, mice treated twice daily with 100 μg ruxolitinib diluted in 100 μl PBS by intraperitoneal (i.p.) injection. For intrathecal (i.t.) ruxolitinib treatments, mice were injected 24 hours before behavioral assays with 10 μg ruxolitinib diluted in 10 μl PBS. Control mice were injected with appropriate vehicle controls (DMSO in PBS) of equivalent volumes.” for “old).”

The subject of a further test is AD patients. The note with it: cited from earlier work.
The subject of the next test is patients with CIP. Briefly: NRS itch scoring of CIP patients under treatment.
Setting [1] is: i.p. 100 μg twice daily during MC903 treatment, Day 7.

With `C=C1/C(=C\C=C2/CCC[C@]3(C)[C@@H]([C@H](C)/C=C/[C@@H](O)C4CC4)CC[C@@H]23)C[C@@H](O)C[C@@H]1O` [MC903, calcipotriol], in the test with wild type (WT) mice, the “histologic score of inflammation” value was “higher”; the “itch phenotype by scratching bouts over time” value is given as “marked chronic itch phenotype”; the “skin inflammation measured by ear skin thickening and histologic features” value is recorded as “robust skin inflammation”.

For `NCCc1c[nH]cn1` [histamine], in the test on mouse DRG neurons, the “responsive neurons as a percentage of total mouse DRG neurons” value (shortened to “responsive neurons as a percentage”) is ~25%.

For the molecule `C[C@]12C=CC(=O)C=C1CC[C@@H]1[C@@H]2C(=O)C[C@@]2(C)[C@H]1CC[C@]2(O)C(=O)CO` [prednisone], in the test with CIP patient (Case 2), the muscle weakness result was “improved” and the pruritus entry is “did not resolve”.

`N#CC[C@H](C1CCCC1)n1cc(-c2ncnc3[nH]ccc23)cn1` [ruxolitinib]: in the test with MC903-treated WT mice (setting [1]), the ear skin thickening result was “statistically significant, but only slight, reduction”; the “histologic parameters of disease” value is recorded as “statistically significant, but only slight, reduction”; the scratching bouts result is given as “significantly reduced”. In addition, the “peripheral skin inflammation (ear thickness, histopathology, histology score)” value in the test on MC903-treated WT mice (single intrathecal (i.t.) injection 10 μg) is given as “no effect”. In the test with MC903-treated WT mice (single intrathecal (i.t.) injection 10 μg, 24 hours before behavioral assay), the scratching bouts result is on record as “marked reduction”.

On to `C[C@@H]1CCN(C(=O)CC#N)C[C@@H]1N(C)c1ncnc2[nH]ccc12` [tofacitinib], for which the “itch symptoms in AD patients” value in the test with AD patients (pilot studies and Phase II clinical trials) was “rapid and significant reduction”. Moreover, in the test with patients with CIP (CIP patients (N=5), 5 mg by mouth twice daily, one month), the “NRS itch score / itch symptoms” value is “marked improvement; also recorded: improved significantly; also recorded: dramatic improvement”. Moreover, the “daily itch scores (NRS), single subject” value with patients with CIP (one CIP subject over 70 days, cyclosporine alone, then switched to JAK inhibitor) was “significant improvement”.

As for “IL-4: recombinant murine IL-4 (Peprotech)”, in the test with mouse DRG neurons, the “responsive neurons as a percentage” value was found to be 4.1±0.5%, the “calcium response of DRG neurons to stimulation” value (from here on “calcium response of DRG neurons”) is recorded as “rapid rise of intracellular calcium in a subset of neurons” and the “cytokine-responsive neurons that also responded to IL-31 or histamine” value is 88.9%.

Take “dupilumab: an anti-IL-4Rα monoclonal antibody”: the “disease and itch severity in AD patients” value with AD patients (Phase II and III clinical trials) is listed as “remarkable improvement”.

B1: IL-5: recombinant murine IL-5 (Peprotech) (protein, UniProt P04401 21-133, looked up)
Interleukin-5: MEIPMSTVVKETLTQLSAHRALLTSNETMRLPVPTHKNHQLCIGEIFQGLDILKNQTVRGGTVEMLFQNLSLIKKYIDRQKEKCGEERRRTRQFLDYLQEFLGVMSTEWAMEG
In the case of B1, the “calcium response of DRG neurons” value in the test with mouse DRG neurons is “no responses; also recorded: does not activate”.

B2: IL-31: recombinant murine IL-31 (Bristol-Myers Squibb), known cytokine pruritogen (protein, UniProt Q6EAL8 24-163, looked up)
Interleukin-31: TCSLSFGAPISKEDLRTTIDLLKQESQDLYNNYSIKQASGMSADESIQLPCFSLDREALTNISVIIAHLEKVKVLSENTVDTSWVIRWLTNISCFNPLNLNISVPGNTDESYDCKVFVLTVLKQFSNCMAELQAKDNTTC
Take B2: the “responsive neurons as a percentage” value with mouse DRG neurons is listed as “approximately 5%”.

B3: IL-13: recombinant murine IL-13 (Peprotech) (protein, UniProt P20109 19-131, looked up)
Interleukin-13: APGPVPRSVSLPLTLKELIEELSNITQDQTPLCNGSMVWSVDLAAGGFCVALDSLTNISNCNAIYRTQRILHGLCNRKAPTTVSSLPDTKIEVAHFITKLLSYTKQLFRHGPF
As to B3, in the test with mouse DRG neurons, the “responsive neurons as a percentage” value came to 3.3±0.8%, the “calcium response of DRG neurons” value was “rapid rise of intracellular calcium in a subset of neurons” and the “cytokine-responsive neurons that also responded to IL-31 or histamine” value stood at 75.0%.

The record behind these values is patent US11931412B2, “JAK1 inhibitors and uses thereof” (Washington University, priority 2016, dated 2024).
